Assay results: paper PMC8376931, “Structure activity relationships and the binding mode of quinolinone-pyrimidine hybrids as reversal agents of multidrug resistance mediated by P-gp” (Scientific Reports, 2021)
Like-named read-outs stand apart in the source and are kept apart here.

Legend:
[1] = molecular target: T1, P-gp (Homo sapiens, UniProt P08183); conditions: 1 h
Experimental: (§1) The intracellular accumulation of the fluorescent probes, Dox and Rho123, was determined by monitoring its fluorescence intensity using flow cytometry (96-well plate format), as previously reported. The inhibition on the outward transport of these P-gp substrates results in an increased […] fluorescence intensity (MFI). […] Those compounds showing inhibition on P-gp at the maximum tested concentration were further evaluated at serial dilutions to determinate their MECs. […] The plates were then incubated in a 5% CO2 incubator for 1 h at 37 °C. Afterwards, 5 μM Dox was added to each well. The other fluorescent specific substrate of P-gp, Rho123, however, was added at 500 ng/mL to additionally measure the ability of the most promising compounds to block its efflux. Subsequently, cells from both assays were washed twice with cold PBS, and 15,000 events from each sample were analyzed to determine the cell-associated fluorescence. Dead cells were eliminated by means of forward- and side-scatter parameters. […] The blocking of the P-gp transport function was evaluated by the parameter FIR, calculated as the ratio of the MFI of Dox or Rho123 with the addition of the likely inhibitor to the MFI of Dox or Rho123 alone.

[2] = test system: K562 cells; assay: Doxorubicin intracellular accumulation assay (flow cytometry) in K562; format: cell-based; set-up: key: MFI with inhibitor / MFI of Dox alone; conditions: compound 20 µM; 5 μM Dox
Experimental: as §1

[3] = molecular target: T1, P-gp; conditions: human, 1 h
Experimental: The intracellular accumulation of the fluorescent probes, Dox and Rho123, was determined by monitoring its fluorescence intensity using flow cytometry (96-well plate format), as previously reported. The inhibition on the outward transport of these P-gp substrates results in an increased […] fluorescence intensity (MFI). […] The plates were then incubated in a 5% CO2 incubator for 1 h at 37 °C. Afterwards, 5 μM Dox was added to each well. The other fluorescent specific substrate of P-gp, Rho123, however, was added at 500 ng/mL to additionally measure the ability of the most promising compounds to block its efflux. Subsequently, cells from both assays were washed twice with cold PBS, and 15,000 events from each sample were analyzed to determine the cell-associated fluorescence. Dead cells were eliminated by means of forward- and side-scatter parameters. […] The blocking of the P-gp transport function was evaluated by the parameter FIR, calculated as the ratio of the MFI of Dox or Rho123 with the addition of the likely inhibitor to the MFI of Dox or Rho123 alone.

[4] = test system: K562 cells; assay: Rhodamine 123 intracellular accumulation assay in K562; format: cell-based; conditions: 20 μM
Experimental: as §1

[5] = test system: K562 cells; assay: MTT cytotoxicity assay in K562; format: cell-based; conditions: 48 h
Experimental: (§2) Then 0.5 mg/mL MTT in PBS was added. After additional incubation for 4 h, the formazan crystals obtained were dissolved in DMSO and the absorbance at 595 nm was read on an iMark micro-plate reader (Bio-Rad, USA). IC50 values for cytotoxicity were then calculated as reported[50] using nonlinear regression by GraphPad Prism 7 (Graphpad Software, Inc., San Diego, CA, USA, www.graphpad.com).
(§3) The cells were incubated at 37 °C at 5% CO2 for 48 h and the same protocol described above was followed. IC50 values of Dox were then obtained.

[6] = test system: Lucena 1 cells; assay: MTT cytotoxicity assay in Lucena 1; format: cell-based; conditions: 48 h
Experimental: as §2, §3

[7] = test system: Lucena 1 cells; assay: Doxorubicin resistance reversal assay; format: cell-based
Experimental: as §3

[8] = test system: PBMC; assay: Cytotoxicity on peripheral blood mononuclear cells (MTT); format: cell-based; conditions: Homo sapiens, 48 h, PHA 10 μg/mL, read-out: inhibition on proliferation of PBMC
Experimental: (§4) PBMC were isolated from heparinized blood of healthy volunteers by density centrifugation using Ficoll-Hypaque separation. Ethical approval was provided by the Catholic University of Córdoba Research Ethics Board and informed consents were obtained from all donors. Briefly, 1 × 10^5 PBMC/well were incubated with the tested compounds at concentrations ranging from 2.5 to 20 µM in the presence of 10 μg/mL PHA, or with 1% DMSO as control. After 48 h incubation, MTT was added and the same protocol described above was followed to calculate the IC50 values. An erythrocyte hemolysis assay was carried out following previous procedures[8] with the compounds assayed at 2.5 to 20 µM.

[9] = test system: erythrocytes; assay: Erythrocyte hemolysis assay; format: cell-based; conditions: assayed at 2.5 to 20 µM
Experimental: as §4

[10] = test system: SphK1; conditions: previously found; read-out: IC50 against SphK1; cited from earlier work
[11] = test system: SphK2; conditions: previously found; read-out: IC50 against SphK2; cited from earlier work

T1 sequence (P08183 whole entry): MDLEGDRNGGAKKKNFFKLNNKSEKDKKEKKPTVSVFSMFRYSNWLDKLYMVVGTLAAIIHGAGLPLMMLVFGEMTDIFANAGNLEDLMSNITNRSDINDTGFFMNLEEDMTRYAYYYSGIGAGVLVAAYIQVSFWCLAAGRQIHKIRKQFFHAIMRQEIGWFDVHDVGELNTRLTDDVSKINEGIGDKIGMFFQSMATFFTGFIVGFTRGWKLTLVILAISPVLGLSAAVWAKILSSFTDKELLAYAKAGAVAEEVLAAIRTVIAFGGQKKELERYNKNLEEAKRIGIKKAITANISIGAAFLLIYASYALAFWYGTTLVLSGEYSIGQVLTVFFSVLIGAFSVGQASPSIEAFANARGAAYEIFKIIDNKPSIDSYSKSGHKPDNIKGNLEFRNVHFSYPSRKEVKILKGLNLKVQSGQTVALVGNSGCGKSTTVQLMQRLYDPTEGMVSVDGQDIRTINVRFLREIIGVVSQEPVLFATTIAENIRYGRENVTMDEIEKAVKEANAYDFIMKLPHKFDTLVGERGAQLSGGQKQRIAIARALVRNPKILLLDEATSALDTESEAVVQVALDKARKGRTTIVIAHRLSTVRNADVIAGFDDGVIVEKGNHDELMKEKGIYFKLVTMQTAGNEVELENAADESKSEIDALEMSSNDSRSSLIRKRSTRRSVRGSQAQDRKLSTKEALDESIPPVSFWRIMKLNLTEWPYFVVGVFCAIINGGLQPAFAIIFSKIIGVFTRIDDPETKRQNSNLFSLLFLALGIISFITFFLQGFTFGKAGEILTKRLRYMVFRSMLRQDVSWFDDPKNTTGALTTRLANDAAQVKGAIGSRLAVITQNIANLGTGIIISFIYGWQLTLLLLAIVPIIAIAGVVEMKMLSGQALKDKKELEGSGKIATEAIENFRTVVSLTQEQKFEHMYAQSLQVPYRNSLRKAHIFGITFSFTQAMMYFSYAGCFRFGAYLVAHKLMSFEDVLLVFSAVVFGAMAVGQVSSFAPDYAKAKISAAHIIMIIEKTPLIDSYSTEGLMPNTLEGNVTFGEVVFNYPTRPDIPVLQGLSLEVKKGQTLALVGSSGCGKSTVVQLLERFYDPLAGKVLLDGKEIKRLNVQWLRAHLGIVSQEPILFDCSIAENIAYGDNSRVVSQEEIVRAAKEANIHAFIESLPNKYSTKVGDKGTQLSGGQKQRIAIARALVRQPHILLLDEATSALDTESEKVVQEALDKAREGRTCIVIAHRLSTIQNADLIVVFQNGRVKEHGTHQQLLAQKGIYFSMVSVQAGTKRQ

**Q.** For `COc1ccc2[nH]c(=O)c(CN3CCN(c4nccc(-c5ccc6ccccc6c5)n4)CC3)cc2c1` [Compound 7b], which “minimum effective concentration (MEC), Dox accumulation” value [1] is on record?
**A.** 0.31 µM

**Q.** And the “FIR Lucena 1” value ([1]; 0.16 µM)?
**A.** 1.04 ± 0.02

**Q.** What about the “FIR Lucena 1” value ([1]; 0.31 µM) of the same molecule?
**A.** 1.10 ± 0.01

**Q.** And the “FIR Lucena 1” value ([1]; 0.62 µM)?
**A.** 1.21 ± 0.01

**Q.** What about the “FIR Lucena 1” value ([1]; 1.25 µM) of the same molecule?
**A.** 1.18 ± 0.03

**Q.** What about the “FIR Lucena 1” value ([1]; 2.5 µM) of the same molecule?
**A.** 1.26 ± 0.04

**Q.** And the “FIR Lucena 1” value ([1]; 5 µM)?
**A.** 1.26 ± 0.04

**Q.** What about the “FIR Lucena 1” value ([1]; 10 µM) of the same molecule?
**A.** 1.25 ± 0.04

**Q.** And the “FIR Lucena 1” value ([1]; 20 µM)?
**A.** 1.43 ± 0.10

**Q.** What about the “FIR K562” value [2] of the same molecule?
**A.** 0.88 ± 0.02

**Q.** What about the “minimum effective concentration (MEC), Rho123 accumulation” value [3] of the same molecule?
**A.** 0.62 µM

**Q.** And the “FIR Rho123” value ([3]; 0.62 µM)?
**A.** 1.37 ± 0.06

**Q.** What about the “FIR Rho123 (fold more Rho123 than untreated cells)” value ([3]; 20 µM) of the same molecule?
**A.** 3.05 ± 0.16

**Q.** And the “Rho123 accumulation in K562 (result in words)” value [4]?
**A.** no increase

**Q.** What about the “IC50 (cytotoxicity) against K562” value [5] of the same molecule?
**A.** non-toxic

**Q.** What about the “IC50 (cytotoxicity) against Lucena 1” value [6] of the same molecule?
**A.** non-toxic

**Q.** What about the “fold reversal (FR) of Dox resistance” value ([7]; compound 80 nM) of the same molecule?
**A.** 1.51 ± 0.23

**Q.** What about the “fold reversal (FR) of Dox resistance” value ([7]; compound 1.25 µM, FR = IC50 Dox/IC50 Dox with compound, 48 h) of the same molecule?
**A.** 6.90 ± 2.84

**Q.** What about the “lowest co-administered concentration significantly increasing doxorubicin toxicity” value ([7]; p < 0.05) of the same molecule?
**A.** 0.08 µM

**Q.** And the inhibition at 20 µM [8]?
**A.** 12%

**Q.** And the “concentrations at which the erythrocyte membrane was not altered” value [9]?
**A.** < 20 µM

**Q.** What about the IC50 [10] of the same molecule?
**A.** > 650 µM

**Q.** And the IC50 [11]?
**A.** > 650 µM
